Source: publication PMC7717600, “Novel [(N-alkyl-3-indolylmethylene)hydrazono]oxindoles arrest cell cycle and induce cell apoptosis by inhibiting CDK2 and Bcl-2: synthesis, biological evaluation and in silico studies” (Journal of Enzyme Inhibition and Medicinal Chemistry, 2020)
Read-outs that look alike come from different tables or passages of the source.

Columns and labels:
SK-OV-3 = conditions: SK-OV-3; listed as D - 795311 / 1
786-0 = conditions: for TGI: 786-0
RXF 393 = conditions: for TGI: RXF 393
HCT-116 = conditions: for TGI: HCT-116
UACC-257 = conditions: for TGI: UACC-257
HOP-62 = conditions: for TGI: HOP-62
NCI-H522 = conditions: for TGI: NCI-H522
BT-549 = conditions: for TGI: BT-549
SK-MEL-2 = conditions: for TGI: SK-MEL-2
OVCAR-3 = conditions: for TGI: OVCAR-3
SNB-19 = conditions: for TGI: SNB-19
TK-10 = conditions: for TGI: TK-10
SK-MEL-28 = conditions: for TGI: SK-MEL-28
HCC-2998 = assay: NCI SRB screening; assay type: cell-based, human
HT29 = conditions: for TGI: HT29
SF-268 = conditions: for TGI: SF-268

SMILES: CCCn1cc(C=NN=C2C(=O)Nc3ccc(C)cc32)c2ccccc21 [Compound 8a]
- TGI (SK-OV-3): 6.71E-5 Molar
- TGI (786-0): 71.20 µM
- GI % (786-0; 786-0, 10 μM): 36%
- Growth Percent (786-0; 786-0, 1.00E-5 Molar): 64.53%
- TGI (786-0; listed as D - 795311 / 1): 7.12E-5 Molar
- TGI (HL-60(TB); HL60(TB)): 4.80 µM
- TGI (HL-60(TB); HL-60(TB)): 4.80E-6 Molar
- GI % (HL-60(TB); HL-60(TB), 10 μM): 123%
- Growth Percent (HL-60(TB); HL-60(TB), 1.00E-5 Molar): -22.61%
- TGI (RXF 393): 7.94 µM
- GI % (RXF 393; RXF 393, 10 μM): 89%
- Growth Percent (RXF 393; RXF 393, 1.00E-5 Molar): 11.38%
- TGI (RXF 393; listed as D - 795311 / 1): 7.94E-6 Molar
- TGI (CCRF-CEM): >100 µM
- GI % (CCRF-CEM; 10 μM): 101%
- Growth Percent (CCRF-CEM; 1.00E-5 Molar): -0.65%
- TGI (CCRF-CEM; listed as D - 795311 / 1): > 1.00E-4 Molar
- GI % (UO-31; UO-31, 10 μM): 40%
- Growth Percent (UO-31; UO-31, 1.00E-5 Molar): 60.00%
- TGI (UO-31; UO-31, listed as D - 795311 / 1): 6.18E-5 Molar
- TGI (HCT-116): 4.17 µM
- GI % (HCT-116; HCT-116, 10 μM): 60%
- Growth Percent (HCT-116; HCT-116, 1.00E-5 Molar): 39.85%
- TGI (HCT-116; listed as D - 795311 / 1): 4.17E-6 Molar
- CC50 (HCT-116; human, 48 h): 9.96 µM
- TGI (UACC-257): 66.60 µM
- GI % (UACC-257; UACC-257, 10 μM): 41%
- Growth Percent (UACC-257; UACC-257, 1.00E-5 Molar): 58.80%
- TGI (UACC-257; listed as D - 795311 / 1): 6.66E-5 Molar
- TGI (HOP-62): 25.0 µM
- GI % (HOP-62; HOP-62, 10 μM): 25%
- Growth Percent (HOP-62; HOP-62, 1.00E-5 Molar): 75.35%
- TGI (HOP-62; listed as D - 795311 / 1): 2.50E-5 Molar
- TGI (NCI-H522): 6.59 µM
- GI % (NCI-H522; NCI-H522, 10 μM): 86%
- Growth Percent (NCI-H522; NCI-H522, 1.00E-5 Molar): 13.81%
- TGI (NCI-H522; listed as D - 795311 / 1): 6.59E-6 Molar
- TGI (MALME-3M): 6.03 µM
- GI % (MALME-3M; 10 μM): 49%
- Growth Percent (MALME-3M; 1.00E-5 Molar): 51.68%
- TGI (MALME-3M; listed as D - 795311 / 1): 6.03E-6 Molar
- TGI (BT-549): 6.33 µM
- GI % (BT-549; BT-549, 10 μM): 37%
- Growth Percent (BT-549; BT-549, 1.00E-5 Molar): 63.53%
- TGI (BT-549; listed as D - 795311 / 1): 6.33E-6 Molar
- TGI (SK-MEL-2): 8.03 µM
- GI % (SK-MEL-2; SK-MEL-2, 10 μM): 65%
- Growth Percent (SK-MEL-2; SK-MEL-2, 1.00E-5 Molar): 35.06%
- TGI (SK-MEL-2; listed as D - 795311 / 1): 8.03E-6 Molar
- TGI (OVCAR-3): 5.11 µM
- GI % (OVCAR-3; OVCAR-3, 10 μM): 98%
- Growth Percent (OVCAR-3; OVCAR-3, 1.00E-5 Molar): 2.10%
- TGI (OVCAR-3; listed as D - 795311 / 1): 5.11E-6 Molar
- TGI (SNB-19): >100 µM
- GI % (SNB-19; SNB-19, 10 μM): 37%
- Growth Percent (SNB-19; SNB-19, 1.00E-5 Molar): 63.34%
- TGI (SNB-19; listed as D - 795311 / 1): > 1.00E-4 Molar
- TGI (NCI/ADR-RES): 89.90 µM
- GI % (NCI/ADR-RES; 10 μM): 24%
- Growth Percent (NCI/ADR-RES; 1.00E-5 Molar): 76.32%
- TGI (NCI/ADR-RES; listed as D - 795311 / 1): 8.99E-5 Molar
- TGI (TK-10): >100 µM
- GI % (TK-10; TK-10, 10 μM): – (Only GI % higher than 10% are shown)
- Growth Percent (TK-10; TK-10, 1.00E-5 Molar): 106.72%
- TGI (TK-10; listed as D - 795311 / 1): > 1.00E-4 Molar
- TGI (SK-MEL-28): 36.9 µM
- GI % (SK-MEL-28; SK-MEL-28, 10 μM): 41%
- Growth Percent (SK-MEL-28; SK-MEL-28, 1.00E-5 Molar): 59.40%
- TGI (SK-MEL-28; listed as D - 795311 / 1): 3.69E-5 Molar
- TGI (HCC-2998; HCC-2998): 5.14 µM
- GI % (HCC-2998; HCC-2998, 10 μM): 53%
- Growth Percent (HCC-2998; HCC-2998, 1.00E-5 Molar): 46.95%
- TGI (HCC-2998; HCC-2998, listed as D - 795311 / 1): 5.14E-6 Molar
- GI50 (HCC-2998; Homo sapiens, HCC-2998): 2.09 µM
- TGI (HT29): >100 µM
- GI % (HT29; HT29, 10 μM): 83%
- Growth Percent (HT29; HT29, 1.00E-5 Molar): 17.08%
- TGI (HT29; listed as D - 795311 / 1): > 1.00E-4 Molar
- TGI (SF-268): 28.0 µM
- GI % (SF-268; SF-268, 10 μM): 54%
- Growth Percent (SF-268; SF-268, 1.00E-5 Molar): 46.59%
- TGI (SF-268; listed as D - 795311 / 1): 2.80E-5 Molar
- TGI (SN12C): 75.90 µM
- GI % (SN12C; 10 μM): 51%
- Growth Percent (SN12C; 1.00E-5 Molar): 49.93%
- TGI (SN12C; listed as D - 795311 / 1): 7.59E-5 Molar
